Assay results reported in paper PMC11426533 (PLOS Pathogens, 2024).

Columns and labels:
[1] = molecular target: T1, ChiA (N-terminally trimmed version) (Clostridium perfringens, UniProt F8UNI5)
T1 construct: gene CP4_3455

[2] = molecular target: T2, ChiB (Clostridium perfringens, UniProt F8UNI4)
T2 construct: gene CP4_3454

[3] = molecular target: T1, ChiA (N-terminally trimmed version); remark: listed apart in the source

T1 sequence (F8UNI5 46-611 limits assumed): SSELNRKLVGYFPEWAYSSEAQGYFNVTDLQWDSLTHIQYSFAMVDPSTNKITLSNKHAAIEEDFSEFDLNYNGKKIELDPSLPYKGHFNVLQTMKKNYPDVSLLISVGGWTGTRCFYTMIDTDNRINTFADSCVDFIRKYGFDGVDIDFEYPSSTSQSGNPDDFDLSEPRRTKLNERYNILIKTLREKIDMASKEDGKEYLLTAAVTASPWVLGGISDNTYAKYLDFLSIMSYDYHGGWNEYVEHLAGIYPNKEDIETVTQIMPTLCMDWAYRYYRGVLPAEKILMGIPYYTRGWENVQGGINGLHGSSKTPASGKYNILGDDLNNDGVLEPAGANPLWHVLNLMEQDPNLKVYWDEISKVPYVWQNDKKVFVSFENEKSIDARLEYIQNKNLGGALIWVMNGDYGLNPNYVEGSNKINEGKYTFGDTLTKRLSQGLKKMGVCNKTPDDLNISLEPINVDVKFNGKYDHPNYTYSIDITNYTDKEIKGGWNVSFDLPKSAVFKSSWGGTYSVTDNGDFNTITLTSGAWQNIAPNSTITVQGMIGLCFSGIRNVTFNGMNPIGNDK
T2 sequence (F8UNI4 1-599): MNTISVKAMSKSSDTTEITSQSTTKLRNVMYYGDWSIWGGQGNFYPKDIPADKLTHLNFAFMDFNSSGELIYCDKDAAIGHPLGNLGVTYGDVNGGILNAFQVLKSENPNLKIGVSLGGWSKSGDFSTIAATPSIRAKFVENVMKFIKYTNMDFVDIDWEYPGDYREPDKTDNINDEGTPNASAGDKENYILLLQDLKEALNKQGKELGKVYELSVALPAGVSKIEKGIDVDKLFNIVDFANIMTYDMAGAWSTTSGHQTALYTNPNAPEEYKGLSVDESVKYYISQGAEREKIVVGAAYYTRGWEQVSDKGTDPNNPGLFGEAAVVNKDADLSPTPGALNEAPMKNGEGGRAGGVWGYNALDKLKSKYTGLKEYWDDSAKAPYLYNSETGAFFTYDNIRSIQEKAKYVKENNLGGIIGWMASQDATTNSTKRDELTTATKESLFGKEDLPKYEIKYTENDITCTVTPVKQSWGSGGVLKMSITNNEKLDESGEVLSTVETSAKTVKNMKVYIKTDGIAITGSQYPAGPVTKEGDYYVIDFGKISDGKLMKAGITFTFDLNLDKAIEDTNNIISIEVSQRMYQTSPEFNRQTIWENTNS

Compound	X-ray crystal structure by soaking, 1.35 Å [1]	X-ray co-crystal structure, 1.85 Å [2]	X-ray co-crystal structure, 1.30 Å [3]
Cn1cnc2c1c(=O)n(CCCn1c(=O)c3c(ncn3C)n(C)c1=O)c(=O)n2C [Bisdionin C]	The crystal of ChiA in complex with the chitinase inhibitor Bisdionin C	The crystal of ChiB in complex with the chitinase inhibitor Bisdionin C	–
N[C@H]1[C@H](O[C@H]2[C@H](O)[C@@H](N)[C@H](O[C@H]3[C@H](O)[C@@H](N)[C@H](O[C@H]4[C@H](O)[C@@H](N)[C@H](O[C@H]5[C@H](O)[C@@H](N)[C@H](O[C@H]6[C@H](O)[C@@H](N)C(O)O[C@@H]6CO)O[C@@H]5CO)O[C@@H]4CO)O[C@@H]3CO)O[C@@H]2CO)O[C@H](CO)[C@@H](O)[C@@H]1O (stereo partly drawn) [chitosan hexamer]	–	–	The crystal of ChiA in complex with the chitinase inhibitor chitosan
